Data reported in patent publication US20160015619A1, “TRANSPARENT SOL, GEL COMPOSITION CONTAINING HIGH CONCENTRATIONS OF VITAMIN C AND VITAMIN C DERIVATIVE” (ABIO CO., LTD., priority 2013, published 2016).

Assay: Anti-oxidation experiment (DPPH free radical removing capability)
Format: biochemical
Description: The free radical removing capability was experimented using the embodiment 4 in Table 5. In case of the DPPH (1,1-diphenyl-2-picrylhydrazyl) used, the radical removing capability of radical sample which changes colors depending on the changes in oxidation/reduction environment was confirmed through the measurements of the O.D. value.
In details, the DPPH experiment sample was prepared by inputting the solution of the embodiment 4 in Table 5 into each well of the 96-well plate by 100 μl. The DPPH was added by 10 μl, and the mixture was placed at a room temperature for 30 minutes, and the absorbance at 517 nm was measured using a micro plate reader. At this time, the solution prepared by adding 10% of the distilled water instead of vitamin C into the solution of the embodiment 4 and the pure vitamin C were used as a control group.

O=C1O[C@H]([C@@H](O)CO)C(O)=C1O [Control group 2 (vitamin C), L-ascorbic acid]
effect on the activation of the anti-oxidation (in words): high effect on the activation of the anti-oxidation
Activation (%) of anti-oxidation (room temperature 30 minutes, absorbance at 517 nm): 90.8%
